| melting point [°C] | SMILES |
| --- | --- |
| 168 to 171 | CN(Cc1ccccc1)C(=O)c1cnc2c3c(c(F)cc2c1)C(=O)C(C(=O)O)C=N3 (centres undefined) |
| 229 to 230 | CCN1C(=O)C2=C(c3ccccc3)N(CC)C(=O)C2=C1c1ccccc1 |
| 96 to 96.5 | CCOc1ccc(Oc2ccc(OCc3ccccc3)cc2)c([N+](=O)[O-])c1 |
| 142 to 144 | N#Cc1cccc(C(=O)Cc2ccnnc2)c1 |
| 195 to 196 | CN1C(=O)CC[C@]2(C)c3ccc(Sc4ccc5cc([N+](=O)[O-])ccc5n4)cc3CC[C@@H]12 |
| 57.5 to 59 | CCOC(=O)c1c(C(F)(F)F)nc(C(F)F)c(C(=O)OC)c1C1CO1 (centres undefined) |
| 133 to 134 | COc1ccc(CNc2cccc3nc(-c4cccc(Cl)c4)oc23)cc1OC1CCCC1 |
| 146 | O=C(O)c1cccc2c1Oc1c(cccc1C(=O)O)N2 |
| 126 to 127 | CCC1C(=O)N(CC)CCc2cc(Nc3ncc(Cl)c(N[C@@H]4CCCC[C@H]4NS(C)(=O)=O)n3)c(OC)cc21 (some centres undefined) |
| 124 to 127 | Cc1ccc2c(c1)CC1(CCC(=O)CC1)C21OCCO1 |
| 178 to 181 | Cc1nccn1-c1cccc(O)c1 |
| 156 to 158 | COc1ccc(CNC(=O)C(C)=NNc2ccc(Cl)cc2)cc1 |
| 80.9 | O=S(=O)(Cl)c1ccc(Oc2ccc(Br)cc2)cc1 |
| 75 to 78 | CCCC(Oc1ccc(Cl)c(C)c1)C(=O)NCc1ccccc1 (centres undefined) |
| 185 | COc1ccc(C(=O)Nc2nc3ccc(N(C)C)cc3c(N=Cc3ccccc3)c2C#N)cc1 |
| 207 to 208 | CN(c1cccc2cc(-c3ncc(CCC#N)s3)[nH]c12)S(=O)(=O)c1cccs1 |
| 120 to 121 | CON=C1CSc2cccc(Cl)c2CN1 |
| 142 to 144 | O=Cc1cc2sc3ccccc3c2c2ccccc12 |
| 84 to 86 | C=CCc1cccc2c(=O)cc(-c3c(F)cccc3F)oc12 |
| 204 to 205 | CS(=O)(=O)c1ccc(-n2cnc3ccc(-c4nnc(CCc5cccc(C(F)(F)F)c5)o4)cc32)cc1 |
| 300 | O=C(O)c1ccc(-c2nc(-c3ccc(Cl)s3)co2)cc1 |
| 165 to 170 | CCC(=O)N=C(Nc1c(Cl)cccc1Cl)SC |
| 113 to 115 | C#CCNc1cc(F)c([N+](=O)[O-])cc1[N+](=O)[O-] |
| 85 to 87 | C=CCNc1c([N+](=O)[O-])ccc(Oc2ccc(C#N)cc2)c1Cl |

| melting point [°C] | SMILES |
| --- | --- |
| 217 to 218 | CC1Oc2ccc(CN3CCC(c4ccc(C(F)(F)F)cc4)CC3)cc2NC1=O (centres undefined) |
| 92 to 94 | COc1ccc2c(C=O)cccc2c1C(F)(F)F |
| 98 to 100 | CCOC(=O)c1ccccc1-n1nnnc1C |
| 104 to 106 | CCOC(=O)COc1ccc2cc(Br)ccc2c1Br |
| 187 to 189 | O=c1cc(NCCN2CCN(c3cccc(Cl)c3)CC2)cn[nH]1 |
| 105 to 106 | C#CCNC(=O)N1CC(Oc2cccc(C(F)(F)F)c2)C1 |
| 115 to 118 | CC(C)(C)OC(=O)N[C@H]1CC[C@H](CCN2CCN(c3cccc4c3CCC4)CC2)CC1 |
| 87 to 88 | CCC(CC)Oc1nn(C)c(=O)c2c1ccn2-c1c(C)cc(C)cc1C |
| 125 to 127 | CCCc1c(OCC(O)COc2ccc3c(=O)cc(C=CC(=O)OCC)oc3c2CCC)ccc(C(C)=O)c1O (centres undefined) |
| 201 to 202 | CC(C)(C)C(NC(=O)c1cccc2c1-c1ccccc1C2=O)Nc1c(Nc2cccnc2)c(=O)c1=O (centres undefined) |
| 300 | O=C(NCc1ccn(-c2cc3nc(C(=O)O)c(=O)[nH]c3cc2C(F)(F)F)c1)Nc1cccc(C(=O)O)c1 |
| 172 to 200 | COC(=O)/C=C/c1ccc(NC(C)=O)nc1 |
| 140 to 142 | CCCN=C(N)Nc1ccnc(CCCCc2ncc(CC)c(O)n2)n1 |
| > 270 | CCCC1=C(C#N)C(c2ccccc2Cl)c2c(n[nH]c2C2CCCCC2)N1 (centres undefined) |
| 133 | CC(CO)Oc1cc(Oc2ccc(C(=O)N3CCC3)cc2F)cc(C(=O)O)c1 (centres undefined) |
| 126 to 129 | CSCC(=O)C(Cc1ccccc1)NC(=O)C(CC(C)C)NC(=O)Cc1cccc2ccccc12 (centres undefined) |
| 156 to 158 | CON(C)C(=O)c1cc(C)c(C(c2cc(F)ccc2F)S(=O)(=O)c2ccc(F)cc2)cn1 (centres undefined) |
| 106 to 108 | COCCOc1ccccc1OS(=O)(=O)NC(=O)Nc1nc(OC)cc(OC)n1 |
| 218 to 219 | COc1cc(C(=O)O)cc(Cl)c1Cl |
| 222 to 225 | O=C(O)C1CCCc2c(-c3ccc(C(F)(F)F)cc3)noc2C1 (centres undefined) |
| 59 | C=CCOCC(C)OC(=O)COc1ccc(Cl)c2cccnc12 (centres undefined) |
| 135 to 137 | Fc1ccc(CCCC(c2ccc(F)cc2)c2c[nH]cn2)cc1 (centres undefined) |
| 330 to 335 | Cc1nc2c(N)nc3ccncc3c2n1C |
| 83.6 | C[C@H](c1ccccc1)N1CCO[C@@H](c2ccc(C#N)cc2)C1 |

| melting point [°C] | SMILES |
| --- | --- |
| 116 to 118 | O=C1c2ccccc2CN1C1CCN(Cc2ccccc2)CC1 |
| 168 to 170 | CS(=O)(=O)Nc1n[nH]c(-c2ccncc2)c1-c1ccc(F)cc1 |
| 222 to 224 | COc1nc(NNc2nc(OC)nc(OC)n2)nc(OC)n1 |
| 118 to 120 | Cc1c(-c2ccccc2)oc2c(C(=O)NCCCN3CCN(c4ccccc4O)CC3)cccc2c1=O |
| 211 to 214 | COC(=O)C(=CC(=CN(C)C)c1ccccc1[N+](=O)[O-])[N+](=O)[O-] |
| 205 | O=C(CCl)Nc1cc(C2(Cl)C=C(C(F)(F)F)C=NC2)ccc1O (centres undefined) |
| 118 to 120 | CCOC(=O)C(C)Oc1ccc2cc(Oc3c(Cl)cc(C(F)(F)F)cc3Cl)ccc2c1 (centres undefined) |
| 198 to 200 | O=C(O)COC1CCN(C(=O)CN2CCN(c3ccncc3)CC2)CC1 |
| 114 | CC(C)(c1ccccc1)c1ccc(OCC(=O)O)c(C(C)(C)c2ccccc2)c1 |
| 102 to 105 | COC1=CC(C=C(C#N)C(=O)O)CC(OC)=C1OC (centres undefined) |
| 232 to 234 | O=[N+]([O-])c1ccc(NN=C(c2ccccc2)c2ccccc2)c([N+](=O)[O-])c1 |
| 90 to 92 | O=C(O)C(OCc1ccc(-c2ccc(Cl)cc2)cc1)(C(F)(F)F)C(F)(F)F |
| 92 | CC(c1ncnc(Cl)c1F)C(O)(Cn1cncn1)c1ccc(F)cc1F (centres undefined) |
| > 250 | CC(C)(O)c1ccc(-c2cnc3[nH]c(=O)n(CC4CCCCC4)c3n2)cn1 |
| 124 to 125 | O=C(NCCCS(=O)(=O)c1ccncc1)c1cccs1 |
| 35 to 36.2 | c1c2c(cc3c1CCC3)CCC2 |
| 62 to 64 | CC(C)(S)CNC(=O)/C(CCO)=C(\c1ccc(Cl)cc1)c1ccc(S(C)(=O)=O)cc1 |
| 165 | O=C1CCC(N2C(=O)c3ccccc3C2=O)C(=O)N1CO (centres undefined) |
| 186 to 187 | COc1ccc(CCS(N)(=O)=S)cc1 (centres undefined) |
| 101 to 102 | c1ccc(COc2ccc(-c3cocn3)cc2)cc1 |
| 73 to 76 | CCOC(=N)C(O)c1sccc1C (centres undefined) |
| 255 to 257 | O=C(O)Cc1c(C(=O)O)c2cc(Oc3ccc(C(F)(F)F)cc3)ccc2n1-c1ccccc1 |
| 240 to 242 | Fc1ccc(Oc2cnc3c(-c4ccccc4Cl)n[nH]c3n2)c(F)c1 |
| 140 | CCONC(=O)c1c(Cl)ccc2cc(Cl)cnc12 |

| melting point [°C] | SMILES |
| --- | --- |
| 99 to 102 | CN(C(=O)c1ccc(-c2ccccc2)cc1)c1ccccc1 |
| 66 to 68 | O=C1N(CCOCc2ccccc2)CCN1c1ccc(C(F)(F)F)cc1 |
| 129 to 130 | CCCc1c(O)c(F)cc(C(C)=O)c1O |
| 195 to 196 | CCn1c(=O)c2c(nc(/C=C/c3cccc(OC)c3OC)n2C)n(CC)c1=O |
| 107 to 109 | Cc1cc(SC(C)C)c(NC(=O)CCCCSc2nc3ccccc3s2)c(SC(C)C)n1 |
| 164 to 165 | COc1ccc(C(=O)Nc2ccccc2)cc1NCc1cc(Cl)cc(Cl)c1 |
| 110 to 112 | O=S(=O)(Nc1ccc2c(OCc3cccc(-c4ccc(F)cc4)c3)cccc2c1)C(F)(F)F |
| 101 to 104 | CCN(CC)C(=O)OC12C(=O)c3ccccc3C1(O)Oc1cc(C(C)C)ccc12 (centres undefined) |
| 175 to 177 | COc1cc(Br)c2oc(-c3ccc(OC)c(F)c3)nc2c1 |
| 136 | COC(=O)C(c1ccccc1)(c1ccccc1)c1c[nH]c(C)n1 |
| 207 to 208 | COC(=O)C1Cc2c([nH]c3ccccc23)C(c2ccc3c(c2)OCO3)N1C(=O)CCl (centres undefined) |
| 122 to 123 | CCCCN(CCCC)CCN=c1sc2ccccc2s1 |
| 157 to 159 | CON(c1ccc([N+](=O)[O-])cc1[N+](=O)[O-])S(=O)(=O)c1cccc(Cl)c1 |
| 132 to 134 | CC(C)N(CCC12CC3CC(CC(C3)C1)C2)C(=O)NCCCc1ccncc1 |
| 134 to 135 | C#Cc1cccc(Nc2ncnc3cc(OCCOC(C)=O)c(OCCOC)cc23)c1 |
| 167 to 168 | CCCCCCCCS(=O)(=O)Nc1cc(C(F)(F)F)ccc1Oc1ccccc1C(=O)O |
| 222 to 224 | CN1C(C(=O)Nc2ccccn2)=C(O)c2sc3ccccc3c2S1(=O)=O |
| 122 to 123 | C=C1N(CC)C(=O)OC12CCN(CCCN1c3ccccc3Sc3ccccc31)CC2 |
| 80 to 81 | CCOC(=O)CCc1cn(Cc2ccc(OCc3coc(-c4ccccc4)n3)cc2)nc1OCC |
| 205 to 206 | O=C(O)C1=Cc2cc(-c3ccc(Cl)s3)ccc2OC1C(F)(F)F (centres undefined) |
| 72.9 to 73.6 | C=CC(=O)O[C@H]1CC[C@H](c2cccc(F)c2F)CC1 |

| SMILES | melting point [°C] |
| --- | --- |
| CCC1CC2=CC(OC(=O)c3ccc([N+](=O)[O-])cc3)CCC2C2CCC3(C)C(O)CCC3C12 (centres undefined) | 135 to 136 |
| N#Cc1cc(F)c(-n2nc3ccc(Cl)cn3c2=O)cc1F | > 230 |
| CON=C(C(=O)O)C(=O)CBr | 76 to 78 |
| Cc1cccc(NC(=O)NC2N=C(C3CCCC3)c3ccccc3N(CC(=O)N3CC4CCC(CC4)C3)C2=O)c1 (racemic) | 132 to 134 |
| COc1nc2nc(C(OC(C)=O)C3(Br)C(=O)N4C(C(=O)OCc5ccc([N+](=O)[O-])cc5)=CSC43)cn2c2c1CCC2 (centres undefined) | 119 |
| Oc1c(CCl)cc(Cl)cc1CCl | 88 |

— a melting point compilation (Tetko et al.; mined from patent text by program, amines drawn as free bases though some values may be those of a salt)
